One series has as its target T1, tubulin (Sus scrofa, UniProt P02550+P02554).
T1 construct: purchased cytoskeleton BK011P
Briefly: Inhibition test of tubulin monomer polymerization (Tubulin polymerization assay kit, fluorescence). It counts as biochemical. The protocol:
Tubulin polymerization assay kit (cytoskeleton, Cat. # BK011P) was used to conduct the compound inhibition test of tubulin monomer polymerization.
Before the test, the 96-well plate (Corning Costar, Cat. # 3686) supplied with the kit was first placed in a microplate reader (MD, SpectraMax M5) and heated to 37°C, maintained for 10 minutes. The 96-well plate was then removed, and 5 µL of 12.5 µM compound solution or blank solution was added thereto. The 96-well plate was then placed back into the microplate reader and incubated at 37°C for 1 minute to heat the compound solution to 37°C. The 96-well plate was removed and 50 µL of reaction mixture prepared according to the supplier's instructions was quickly added to each well, completing the sample addition within 1 minute to avoid the formation of bubbles. The 96-well plate was then immediately placed back into the microplate reader, shaken for 5 seconds, and using the Kinetic mode, continuous detection was carried out at 37°C for 30 to 60 minutes under the conditions of excitation light at 360 nm and emission light at 420 nm, with detection every 30 seconds. Taking the detection time as the X-axis and the fluorescence signal value as the Y-axis, the tubulin monomer polymerization curve was obtained. As shown in FIG. 66 and Table 40, the larger the Vmax value and the higher the maximum fluorescence signal value of the polymerization curve, the lower the inhibitory efficiency of the compound.

Series [1] concerns Human cutaneous squamous cell carcinoma cell A-431. The experiment in a line: Cell proliferation inhibition test, A-431. The class given is cell-based. Conditions: A-431, 96 h, 4 days incubation. The procedure: (§1) Human cutaneous squamous cell carcinoma cell A-431 (ATCC, CRL-1555) and actinic keratosis patient-derived cell HT 297.T (ATCC, CRL-7782) proliferation assays were used to detect the inhibitory effect of small molecular compounds on cell proliferation.
A-431 cells and HT 297.T cells were cultured in DMEM medium containing 10% fetal bovine serum and grown at 37°C in a 5% CO2 incubator. Cells on logarithmic phase were seeded into a 96-well cell culture plate at 1000 cells/well, 100 µL per well, and then cultured overnight at 37°C in a 5% CO2 incubator. The next day, 100 µL of gradient-diluted 2× test compound solution was added to each well, with DMSO serving as a positive control, and 10 µM staurosporine (Aladdin, S102392) was set as a negative control group. After the addition of the compounds, the culture plate was incubated for another 4 days at 37°C in a 5% CO2 incubator. After incubation, the Steady-Glo® luciferase assay system (Promega, G9243) was used according to the supplier's instructions to measure the fluorescence signal value on the Envision 2104 Multilabel Reader. The inhibition rate was calculated by the following formula, then the curve was plotted with the Log value of the inhibitor concentration as the X-axis and the inhibition rate as the Y-axis, and the IC50 was calculated using Graphpad 8.0. [formula] […]

Series [2] concerns actinic keratosis patient-derived cell HT 297.T. Briefly: Cell proliferation inhibition test, HT 297.T. It counts as cell-based, Human. The protocol: as §1
A-431 cells and HT 297.T cells were cultured in DMEM medium containing 10% fetal bovine serum and grown at 37°C in a 5% CO2 incubator. Cells on logarithmic phase were seeded into a 96-well cell culture plate at 1000 cells/well, 100 µL per well, and then cultured overnight at 37°C in a 5% CO2 incubator. The next day, 100 µL of gradient-diluted 2× test compound solution was added to each well, with DMSO serving as a positive control, and 10 µM staurosporine (Aladdin, S102392) was set as a negative control group. After the addition of the compounds, the culture plate was incubated for another 4 days at 37°C in a 5% CO2 incubator. After incubation, the Steady-Glo® luciferase assay system (Promega, G9243) was used according to the supplier's instructions to measure the fluorescence signal value on the Envision 2104 Multilabel Reader. The inhibition rate was calculated by the following formula, then the curve was plotted with the Log value of the inhibitor concentration as the X-axis and the inhibition rate as the Y-axis, and the IC50 was calculated using Graphpad 8.0. [formula] Table 41: Inhibition results of test compounds on proliferation activity of A-431 and HT 297.T cells

Series [3] can be described thus: Human liver microsome stability test. It counts as in vitro ADME. The procedure:
The human liver microsome stability test was performed by incubating the compound and human liver microsomes in vitro. First, the compound to be tested was prepared into a 10 mM stock solution in DMSO solvent, and then the compound was diluted to 0.5 mM with acetonitrile. Human liver microsomes (Corning) were diluted with PBS into a microsome/buffer solution, and the solution was used to dilute 0.5 mM compound into a working solution, in which the concentration of the compound was 1.5 µM, and the concentration of human liver microsomes was 0.75 mg/mL. A deep-well plate was taken, 30 µL of the working solution was added per well, and then 15 µL of pre-heated 6 mM NADPH solution was added thereto to initiate a reaction, and the reaction was incubated at 37°C. At 0, 5, 15, 30 and 45 min of the incubation, 135 µL of acetonitrile was added to the corresponding wells to terminate the reaction. After the reaction was terminated with acetonitrile at the last time point of 45 min, the deep-well plate was vortexed and shaken for 10 min (600 rpm), and then centrifuged for 15 min. After centrifugation, the supernatant was collected, and added with purified water in a ratio of 1:1 to perform LC-MS/MS detection. A ratio of a peak area of compound to a peak area of internal standard at each time point was obtained, and the peak area ratios of the compound at 5, 15, 30 and 45 min were compared with the peak area ratio at 0 min to calculate the remaining percentage of the compound at each time point. T1/2 was calculated by using GraphPad 5 software. Table 45: Results of human liver microsome stability test
Background: Liver microsomes are vesicles of endoplasmic reticulum, rich in cytochrome P450 enzymes.

In a further series the test system is p-SRC. The experiment in a line: Inhibition of Src signaling pathway (Western Blot of p-SRC in A-431 cells). It counts as cell-based, Human. The procedure:
The Western Blot method was used to detect the compound's inhibition of p-SRC in A-431 skin cancer cells (ATCC, CRL-1555) to evaluate the inhibitory effect of the compound on the SRC signaling pathway.
A-431 cells were cultured in DMEM medium containing 10% fetal bovine serum and grown at 37°C in a 5% CO2 incubator. 500,000 cells/well were seeded in a 12-well cell culture plate and cultured overnight at 37°C in a 5% CO2 incubator. The next day, the culture medium was replaced and different concentrations of the compound were added, with DMSO serving as a control. After the addition of the compounds, the culture plate was cultured for another 24 hours at 37°C in a 5% CO2 incubator. The cells were washed once with PBS, and lysed with RIPA lysis buffer (R0010, Solarbio) at low temperature for 30 minutes. Afterwards, the protein lysate was collected into a centrifuge tube, centrifuged at 14,000 g at 4°C for 10 minutes, and the supernatant was transferred to a new tube. The BCA protein concentration assay kit (P0009, Beyotime Biotechnology) was used to detect and calculate the protein concentration. A 5× protein loading buffer was used to quantify the protein of each sample consistently. The samples were boiled at 100°C for 5 minutes, and subjected to western blot to detect the level of p-SRC. […]

T1 sequence (P02550 whole entry): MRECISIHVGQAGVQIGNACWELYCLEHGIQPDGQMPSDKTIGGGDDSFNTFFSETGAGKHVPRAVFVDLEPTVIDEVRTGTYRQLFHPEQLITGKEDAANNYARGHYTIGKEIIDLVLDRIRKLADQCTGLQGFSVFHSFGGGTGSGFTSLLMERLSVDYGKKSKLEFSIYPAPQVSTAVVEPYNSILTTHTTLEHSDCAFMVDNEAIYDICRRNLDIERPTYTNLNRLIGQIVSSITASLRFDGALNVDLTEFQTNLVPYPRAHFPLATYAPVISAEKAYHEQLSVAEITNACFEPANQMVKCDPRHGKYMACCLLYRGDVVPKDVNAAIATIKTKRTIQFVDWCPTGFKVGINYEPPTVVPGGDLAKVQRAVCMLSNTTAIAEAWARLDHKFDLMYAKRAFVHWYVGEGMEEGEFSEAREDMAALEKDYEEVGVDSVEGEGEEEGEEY
T1 sequence (P02554 whole entry): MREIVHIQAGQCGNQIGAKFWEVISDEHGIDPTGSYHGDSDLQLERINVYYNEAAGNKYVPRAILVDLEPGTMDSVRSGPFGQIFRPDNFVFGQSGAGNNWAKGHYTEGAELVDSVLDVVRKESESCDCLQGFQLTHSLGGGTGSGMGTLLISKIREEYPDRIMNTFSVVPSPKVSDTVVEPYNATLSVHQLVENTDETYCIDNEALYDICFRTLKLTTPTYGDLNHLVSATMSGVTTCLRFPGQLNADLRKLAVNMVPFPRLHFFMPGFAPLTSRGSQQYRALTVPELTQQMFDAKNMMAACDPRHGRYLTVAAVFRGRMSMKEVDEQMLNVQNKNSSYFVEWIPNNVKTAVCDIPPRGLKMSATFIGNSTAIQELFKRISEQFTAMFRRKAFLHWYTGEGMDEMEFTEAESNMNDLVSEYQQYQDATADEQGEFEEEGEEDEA

The IC50 is the concentration that inhibits the measured activity by half. Lower therefore signals inhibition by little substance. The term half-life denotes the time in which the quantity being followed falls by half. High values mean slow decline, low ones rapid decline. `Cc1cc(OCCN2C[C@H]3COC[C@H]3C2)ccc1-c1ccc(CC(=O)NCc2ccccc2)nc1` [Compound of Formula I, N-benzyl-2-(5-(2-methyl-4-(2-((3aR,6aS)-tetrahydro-1H-furo[3,4-c]pyrrol-5(3H)-yl)ethoxy)phenyl)pyridin-2-yl)acetamide]: the Maximum signal value on tubulin (5 µL of 12.5 µM compound solution, fluorescence ex 360 nm / em 420 nm, 37°C, larger value = lower inhibitory efficiency) was 478. The “Vmax value and maximum fluorescence signal value of the polymerization curve” value on tubulin (in words) was “significantly smaller”. Further, the IC50 in series [1] worked out at 22.6 nM; in series [2] (Homo sapiens, 96 h, 4 days incubation) it was 41.3 nM. Also, the “inhibitory effect on HT 297.T cells” value in series [2] (in words, versus control compound) is reported as “significantly better than that of the control compound”. Besides, the half-life at 1 µM in series [3] (human liver microsomes, NADPH, 37°C, 0-45 min) was found to be 17.2 min. In addition, in series [3] (in words), the “metabolism by human liver microsomes” value is listed as “metabolized quickly”. Also, the “phosphorylation of SRC” value with p-SRC (80 nM, A-431 cells, 24 hours) is “significantly inhibit the phosphorylation of SRC”. Further, the p-SRC inhibitory activity result in the series with p-SRC (in words, compared with the control compound) is reported as “better p-SRC inhibitory activity compared with the control compound”.

These data come from patent EP4745130A1, “CRYSTAL FORMS OF TUBULIN-SRC DUAL-TARGETING INHIBITOR, PREPARATION METHOD THEREFOR AND USE THEREOF” (Hubei Bio-Pharmaceutical Industrial Technological Institute …, priority 2023, dated 2025).
